Test results reported in ChEMBL document CHEMBL5104199, “Design, Synthesis, and Biochemical and Biological Evaluation of Novel 7-Deazapurine Cyclic Dinucleotide Analogues as STING Receptor Agonists” (J Med Chem, 2022).

Key:
[1] = target: T1, Stimulator of interferon genes protein (Homo sapiens, UniProt Q86WV6); conditions: filed as agonist
Description: Binding affinity to human wild type STING assessed as change in melting temperature by differential scanning fluorimetry (DSF) method

[2] = target: T1, Stimulator of interferon genes protein; test: Agonist activity at human wild type STING expressed in 293T cells by digitonin cell based assay; parameters: species or system HEK293T
[3] = cells; conditions: Homo sapiens, HEK-293T
Description: Agonist activity at human STING AQ expressed in 293T cells by digitonin cell based assay

[4] = cells; conditions: Homo sapiens, HEK-293T; remark: listed apart in the source
Description: Agonist activity at human STING HAQ expressed in 293T cells by digitonin cell based assay

[5] = cells; conditions: Homo sapiens, HEK-293T; remark: listed apart in the source
Description: Agonist activity at human STING REF expressed in 293T cells by digitonin cell based assay

[6] = cells; conditions: Homo sapiens, HEK-293T; remark: listed apart in the source
Description: Agonist activity at human STING Q expressed in 293T cells by digitonin cell based assay

[7] = Cytotoxicity against human PBMC cells; format: toxicity, cell-based
[8] = Induction of TNFalpha secretion in human PBMC incubated for 16 hrs
[9] = target: T1, Stimulator of interferon genes protein; test: Agonist activity at human wild type full length STING expressed in 293T cells incubated for 7 hrs by luciferase/cell based assay; parameters: species or system HEK-293T
[10] = Induction of IFNgamma secretion in human PBMC incubated for 16 hrs
[11] = Induction of IFNalpha secretion in human PBMC incubated for 16 hrs

T1 sequence (Q86WV6 whole entry): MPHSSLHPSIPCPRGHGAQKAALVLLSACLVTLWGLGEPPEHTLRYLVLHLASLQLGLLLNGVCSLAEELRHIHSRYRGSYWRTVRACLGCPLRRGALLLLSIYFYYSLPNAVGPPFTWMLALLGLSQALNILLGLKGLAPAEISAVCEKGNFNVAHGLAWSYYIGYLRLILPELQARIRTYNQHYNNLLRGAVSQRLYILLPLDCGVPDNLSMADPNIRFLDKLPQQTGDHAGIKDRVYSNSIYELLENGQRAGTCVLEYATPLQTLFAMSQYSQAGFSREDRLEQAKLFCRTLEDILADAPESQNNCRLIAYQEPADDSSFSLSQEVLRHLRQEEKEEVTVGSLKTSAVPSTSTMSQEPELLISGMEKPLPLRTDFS

Row | SMILES | ΔTm [1] [°C] | EC50 [2] [µM] | EC50 [3] [µM] | EC50 [4] [µM] | EC50 [5] [µM] | EC50 [6] [µM] | Activity [7] | EC50 [8] [µM] | EC50 [9] [µM] | EC50 [10] [µM] | EC50 [11] [µM]
1 | Nc1nc2c(ncn2[C@@H]2O[C@@H]3COP(=O)(O)O[C@H]4[C@@H](O)[C@H](n5cc(-c6cccc7c6oc6ccccc67)c6c(N)ncnc65)O[C@@H]4COP(=O)(O)O[C@@H]2[C@@H]3O)c(=O)[nH]1 | 7.1 | 0.367 | 0.869 | 0.503 | 8.97 | 7.07 | Non-Toxic | 99.7 | – | – | –
2 | Nc1nc2c(ncn2[C@@H]2O[C@@H]3COP(=O)(O)O[C@H]4[C@@H](O)[C@H](n5cc(-c6ccco6)c6c(N)ncnc65)O[C@@H]4COP(=O)(O)O[C@@H]2[C@@H]3O)c(=O)[nH]1 | – | – | – | – | – | – | Non-Toxic | – | – | – | –
3 | Nc1nc2c(ncn2[C@@H]2O[C@@H]3COP(=O)(O)O[C@H]4[C@@H](O)[C@H](n5cc(-c6ccccc6)c6c(N)ncnc65)O[C@@H]4COP(=O)(O)O[C@@H]2[C@@H]3O)c(=O)[nH]1 | 8.1 | 0.063 | 0.307 | 0.385 | 5.9 | 1.7 | Non-Toxic | 52.5 | – | – | –
4 | Nc1nc2c(c(-c3ccccc3)cn2[C@@H]2O[C@@H]3COP(=O)(O)O[C@H]4[C@@H](O)[C@H](n5cc(-c6ccccc6)c6c(N)ncnc65)O[C@@H]4COP(=O)(O)O[C@@H]2[C@@H]3O)c(=O)[nH]1 | 1 | 6.41 | 10.3 | 9.42 | 19.5 | 0.271 | – | – | > 150 | – | –
5 | Nc1nc2c(ncn2[C@@H]2O[C@@H]3COP(=O)(O)O[C@H]4[C@@H](O)[C@H](n5cnc6c(N)ncnc65)O[C@@H]4COP(=O)(O)O[C@H]3[C@H]2O)c(=O)[nH]1 | – | – | – | – | – | – | Non-Toxic | 18.7 | – | 17.2 | 7.65
6 | Nc1nc2c(ncn2[C@@H]2O[C@@H]3COP(=O)(O)O[C@H]4[C@@H](O)[C@H](n5cc(-c6ccc7ccccc7c6)c6c(N)ncnc65)O[C@@H]4COP(=O)(O)O[C@@H]2[C@@H]3O)c(=O)[nH]1 | 14.4 | 0.048 | 0.55 | 0.695 | 1.4 | 0.7 | Non-Toxic | 98.8 | – | – | –
7 | Nc1nc2c(ncn2[C@@H]2O[C@@H]3COP(=O)(O)O[C@H]4[C@@H](O)[C@H](n5cc(-c6cc7ccccc7s6)c6c(N)ncnc65)O[C@@H]4COP(=O)(O)O[C@@H]2[C@@H]3O)c(=O)[nH]1 | 13.5 | 0.035 | 0.33 | 0.195 | 0.35 | 0.25 | Non-Toxic | 1.43 | – | 0.87 | 4.04
8 | Nc1nc2c(ncn2[C@@H]2O[C@@H]3COP(=O)(O)O[C@H]4[C@@H](O)[C@H](n5cc(C6CC6)c6c(N)ncnc65)O[C@@H]4COP(=O)(O)O[C@@H]2[C@@H]3O)c(=O)[nH]1 | – | – | – | – | – | – | Non-Toxic | – | – | – | –
9 | Nc1nc2c(ncn2[C@@H]2O[C@@H]3COP(=O)(O)O[C@H]4[C@@H](O)[C@H](n5cc(-c6cc7ccccc7o6)c6c(N)ncnc65)O[C@@H]4COP(=O)(O)O[C@@H]2[C@@H]3O)c(=O)[nH]1 | 12.1 | 0.076 | 0.085 | 0.06 | 0.334 | 0.176 | Non-Toxic | 24.6 | – | 8.33 | 12.8
10 | Nc1nc2c(ncn2[C@@H]2O[C@@H]3COP(=O)(O)O[C@H]4[C@@H](O)[C@H](n5cc(-c6ccc(-c7ccc8ccccc8c7)cc6)c6c(N)ncnc65)O[C@@H]4COP(=O)(O)O[C@@H]2[C@@H]3O)c(=O)[nH]1 | 13 | 0.032 | 0.16 | 0.132 | 1 | 0.95 | Non-Toxic | 53.9 | – | 1.77 | 5.09
11 | Nc1nc2c(ncn2[C@@H]2O[C@@H]3COP(=O)(O)O[C@H]4[C@@H](O)[C@H](n5cc(-c6cccs6)c6c(N)ncnc65)O[C@@H]4COP(=O)(O)O[C@@H]2[C@@H]3O)c(=O)[nH]1 | – | – | – | – | – | – | Non-Toxic | – | – | – | –
12 | Nc1nc2c(ncn2[C@@H]2O[C@@H]3COP(=O)(O)O[C@H]4[C@@H](O)[C@H](n5cc(-c6ccccc6)c6c(N)ncnc65)O[C@@H]4COP(=O)(O)O[C@H]3[C@H]2O)c(=O)[nH]1 | 5.1 | 0.11 | 0.28 | 0.367 | 10.4 | 4.48 | Non-Toxic | 65.8 | > 150 | 12.6 | 6.92
13 | Nc1nc2c(ncn2[C@@H]2O[C@@H]3COP(=O)(O)O[C@@H]4[C@H](O)[C@@H](COP(=O)(O)O[C@@H]2[C@@H]3O)O[C@H]4n2cnc3c(N)ncnc32)c(=O)[nH]1 | 2.5 | 0.26 | 0.173 | 0.189 | 59.5 | 7.09 | Non-Toxic | 44.5 | > 150 | 11.8 | 7.21
14 | Cc1cn([C@@H]2O[C@@H]3COP(=O)(O)O[C@@H]4[C@H](O)[C@@H](COP(=O)(O)O[C@H]3[C@H]2O)O[C@H]4n2cnc3c(=O)[nH]c(N)nc32)c2ncnc(N)c12 | – | – | – | – | – | – | Non-Toxic | – | – | – | –
15 | Nc1nc2c(ncn2[C@@H]2O[C@@H]3COP(=O)(O)O[C@H]4[C@@H](O)[C@H](n5cc(-c6ccc7c8c(cccc68)CC7)c6c(N)ncnc65)O[C@@H]4COP(=O)(O)O[C@@H]2[C@@H]3O)c(=O)[nH]1 | 2.5 | 1.16 | 1.53 | 1.63 | > 45 | 35.9 | Non-Toxic | > 200 | > 150 | 85.2 | 74.7
16 | Nc1ncnc2c1c(-c1ccccc1)cn2[C@@H]1O[C@@H]2COP(=O)(O)O[C@@H]3[C@H](O)[C@@H](COP(=O)(O)O[C@H]2[C@H]1O)O[C@H]3n1cc(-c2ccccc2)c2c(N)ncnc21 | -0.6 | > 45 | > 45 | > 45 | > 45 | > 45 | – | – | > 150 | – | –
17 | Nc1nc2c(ncn2[C@@H]2O[C@@H]3COP(=O)(O)O[C@H]4[C@@H](O)[C@H](n5cc(-c6cc7ccccc7c7ccccc67)c6c(N)ncnc65)O[C@@H]4COP(=O)(O)O[C@@H]2[C@@H]3O)c(=O)[nH]1 | 4.4 | 0.061 | 1.4 | 0.9 | > 45 | > 45 | Non-Toxic | > 200 | – | – | > 200
18 | Nc1nc2c(ncn2[C@@H]2O[C@@H]3COP(=O)(O)O[C@H]4[C@@H](O)[C@H](n5cc(-c6cccc7ccccc67)c6c(N)ncnc65)O[C@@H]4COP(=O)(O)O[C@@H]2[C@@H]3O)c(=O)[nH]1 | 4.4 | 1.1 | 0.47 | 0.497 | 18.9 | 7.23 | Non-Toxic | > 200 | – | – | –
19 | Nc1nc2c(ncn2[C@@H]2O[C@@H]3COP(=O)(O)O[C@H]4[C@@H](O)[C@H](n5cc(-c6ccc(-c7ccccc7)cc6)c6c(N)ncnc65)O[C@@H]4COP(=O)(O)O[C@@H]2[C@@H]3O)c(=O)[nH]1 | 12.3 | 0.013 | 0.092 | 0.173 | 0.346 | 0.235 | Non-Toxic | 13.6 | – | 2.05 | 7.43
20 | Nc1nc2c(ncn2[C@@H]2O[C@@H]3COP(=O)(O)O[C@H]4[C@@H](O)[C@H](n5cnc6c(N)ncnc65)O[C@@H]4COP(=O)(O)O[C@@H]2[C@@H]3O)c(=O)[nH]1 | – | – | – | – | – | – | Non-Toxic | – | – | – | –
